{"source": "patent US11186588B2", "about": "(AYUMI PHARMACEUTICAL CORPORATION, priority 2017, dated 2021)", "key": {"NF-κB": {"tested_on": "NF-κB", "assay": "NF-κB reporter gene assay (TNF-α stimulated A549/NF-κB-luc cells)", "assay_type": "cell-based", "conditions": "Homo sapiens, TNF-α stimulation", "summary_of_the_method": "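A549 cells stably carrying an NF-κB luciferase reporter were preincubated with compound for 1 h, then stimulated with TNF-α for 3 h. Luminescence was read with Steady-Glo, and inhibition was scaled between blank and DMSO control wells. IC50 was obtained by curve fitting.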"}, "[1]": {"assay": "Pharmacokinetics test in rats (oral administration)", "assay_type": "in vivo, LEW/CrlCrlj rats", "description": "In order to evaluate the transition of plasma concentration of the present compound after oral administration, pharmacokinetics was evaluated in rats. The specific method is described below.\nAppropriate amounts of Example 71 and various salts thereof were weighed, triturated with an agate mortar, and suspended or dissolved in 1% methyl cellulose solution to 2 mg/mL (as a converted quantity of Example 71 considering the correction of purify).\nLEW/CrlCrlj rats (male, purchased form Charles River Laboratories Japan, Inc.) were weighted, a random number based on the measured body weight was used to avoid difference in average body weight among groups, and the rats were divided into groups, wherein each groups contained 4 rats. The rats were manually held in hands and forced orally administered each administration solution comprising the compound at a dose of 5 mL/kg into stomach using a feeding needle. At 0.5, 1, 3, 6 and 24 hours after the administration of each administration solution comprising the compound, the rats were manually held in hands, and blood was collected from the jugular vein or subclavian vein using a heparin-treated injection syringe. The obtained blood was centrifuged at 1,500 G for 10 minutes, and plasma was collected as an actual sample. In addition, plasma was collected from rats before the administration of the compound in the same manner, which was used as blank plasma. The collected actual samples and blank plasma were stored in a freezer set at −70° C. until the measurement of the compound concentration. To 20 μL of each actual sample were added 20 μL of acetonitrile (available from Kishida Chemical Co., Ltd., Cat No. 140-00401), 100 μL of MilliQ water and 20 μL of the internal standard solution to prepare an analytical sample. In addition, to 20 μL of blank plasma were added 20 μL or 40 μL of acetonitrile (available from Kishida Chemical Co., Ltd., Cat No. 140-00401) and 100 μL of MilliQ water (a blank sample or a zero sample, respectively). A standard sample for a calibration curve was prepared by mixing 20 μL of blank plasma, 20 μL of the standard solution for a calibration curve in each concentration, 100 μL of MilliQ water and 20 μL of the internal standard solution. Whole amount of the prepared each sample was applied to a diatomaceous earth column for liquid-liquid extraction (available from Biotage, Cat No. 820-0200), tert-butyl methyl ether (available from Kanto Chemical Co., Inc., Cat No. 04418-5B) was added and eluted by natural dropping, and the obtained eluate was concentrated to dryness under a nitrogen stream. The residue was dissolved in the re-dissolved solution and 10 μL of each sample was injected into the LC/MS/MS apparatus.\nLC/MS/MS analysis was carried out under the following conditions. Analytical column: Hydrosphere C18, 3 μm, 2.0 mm I.D.×50 mm (from YMC, Cat No. HS12S03-0502WT)\nFlow rate: 0.3 mL/min. Column temperature: 50° C. Peak area calculation, peak area ratio calculation, preparation of calibration and quantification used in calculating the concentration for the LC/MS/MS analysis were carried out by Analyst ver.1.6.2 (available from AB Sciex). In addition, by using the obtained concentration measurement results, these were analyzed by Non-compartmental model of a pharmacokinetics analysis program WinNonlin ver.6.1 (Pharsight Corporation), and the pharmacokinetics parameter was calculated."}, "[2]": {"conditions": "male, LEW/CrlCrlj, rat, plasma, 10 mg/kg, oral 2 mg/mL solution at 5 mL/kg, mean n = 4"}}}
{"smiles": "Cc1sc2c(c1C)C(c1ccc(Cl)cc1)=NN(Cc1ccccn1)c1nnc(C)n1-2", "note": "[Example 5, 4-(4-chlorophenyl)-2,3,9-trimethyl-6-(pyridin-2-ylmethyl)-6H-thieno[2,3-e][1,2,4]triazolo[3,4-c][1,2,4]triazepine]", "values": [{"measurement": "IC50", "setting": "NF-κB", "value": 27.5, "unit": "nM"}]}
{"smiles": "Cc1sc2c(c1C)C(c1ccc(Cl)cc1)=NN(Cc1cccnc1F)c1nnc(C)n1-2", "note": "[Example 25, 4-(4-chlorophenyl)-6-((2-fluoropyridin-3-yl)methyl)-2,3,9-trimethyl-6H-thieno[2,3-e][1,2,4]triazolo[3,4-c][1,2,4]triazepine]", "values": [{"measurement": "IC50", "setting": "NF-κB", "value": 50.3, "unit": "nM"}]}
{"smiles": "Cc1sc2c(c1C)C(c1ccccc1)=NN(Cc1ccccn1)c1nnc(C)n1-2", "note": "[Example 31, 2,3,9-trimethyl-4-phenyl-6-(pyridin-2-ylmethyl)-6H-thieno[2,3-e][1,2,4]triazolo[3,4-c][1,2,4]triazepine]", "values": [{"measurement": "IC50", "setting": "NF-κB", "value": 150, "unit": "nM"}]}
{"smiles": "Cc1sc2c(c1C)C(c1ccc(Cl)cc1)=NN(Cc1cccnc1Cl)c1nnc(C)n1-2", "note": "[Example 38, 4-(4-chlorophenyl)-6-((2-chloropyridin-3-yl)methyl)-2,3,9-trimethyl-6H-thieno[2,3-e][1,2,4]triazolo[3,4-c][1,2,4]triazepine]", "values": [{"measurement": "IC50", "setting": "NF-κB", "value": 106, "unit": "nM"}]}
{"smiles": "CC(=O)Nc1ccc(C2=NN(Cc3cccnc3)c3nnc(C)n3-c3sc(C)c(C)c32)cc1", "note": "[Example 71, N-(4-(2,3,9-trimethyl-6-(pyridin-3-ylmethyl)-6H-thieno[2,3-e][1,2,4]triazolo[3,4-c][1,2,4]triazepin-4-yl)phenyl)acetamide]", "values": [{"measurement": "IC50", "setting": "NF-κB", "value": 634, "unit": "nM"}, {"measurement": "concentration at 0.5 h", "setting": "[1]; male, LEW/CrlCrlj, rat, 10 mg/kg, plasma, 0.5 h after oral 2 mg/mL solution at 5 mL/kg, mean n = 4, read-out: Concentration (ng/mL), sampling time 0.5 h", "value": 22.1, "unit": "ng/mL"}, {"measurement": "concentration at 1 h", "setting": "[1]; male, LEW/CrlCrlj, rat, 10 mg/kg, plasma, 1 h after oral 2 mg/mL solution at 5 mL/kg, mean n = 4, read-out: Concentration (ng/mL), sampling time 1 h", "value": 14.8, "unit": "ng/mL"}, {"measurement": "concentration at 3 h", "setting": "[1]; male, LEW/CrlCrlj, rat, 10 mg/kg, plasma, 3 h after oral 2 mg/mL solution at 5 mL/kg, mean n = 4, read-out: Concentration (ng/mL), sampling time 3 h", "value": 4.23, "unit": "ng/mL"}, {"measurement": "concentration at 6 h", "setting": "[1]; male, LEW/CrlCrlj, rat, 10 mg/kg, plasma, 6 h after oral 2 mg/mL solution at 5 mL/kg, mean n = 4, read-out: Concentration (ng/mL), sampling time 6 h", "value": 1.46, "unit": "ng/mL"}, {"measurement": "AUC(0-inf)", "setting": "[1]; [2]", "value": 61.8, "unit": "ng·h/mL"}, {"measurement": "AUC(0-t)", "setting": "[1]; [2]", "value": 42.3, "unit": "ng·h/mL"}, {"measurement": "half-life", "setting": "[1]; [2]", "value": 1.31, "unit": "h"}, {"measurement": "Cmax", "setting": "[1]; male, LEW/CrlCrlj, rat, plasma, 10 mg/kg, oral 2 mg/mL solution at 5 mL/kg, mean n = 4, read-out: Cmax", "value": 22.4, "unit": "ng/mL"}, {"measurement": "MRT", "setting": "[1]; male, LEW/CrlCrlj, rat, plasma, 10 mg/kg, oral 2 mg/mL solution at 5 mL/kg, mean n = 4, read-out: MRT", "value": 1.82, "unit": "h"}, {"measurement": "Tmax", "setting": "[1]; male, LEW/CrlCrlj, rat, plasma, 10 mg/kg, oral 2 mg/mL solution at 5 mL/kg, mean n = 4, read-out: Tmax", "value": 0.75, "unit": "h"}, {"measurement": "Kel", "setting": "[1]; oral 2 mg/mL solution at 5 mL/kg, mean n = 4", "value": 0.55, "unit": "h⁻¹"}]}
